# Reference: US20060276477A1, “Treatment method for anemia” (FibroGen, Inc., priority 2005, published 2006)
# Key:
# Format in all cases: in vivo
# [1] = Circulating EPO (Cmax, AUC) after i.v. or s.c. administration of rhEPO to human subjects; conditions: assumes basal endogenous EPO of ~10 mIU/ml
# Source text: (§1) Increases in circulating EPO levels following administration of compound A or of rhEPO were compared. Table 3 and Table 2 below show Cmax EPO and EPO Area Under the Curve (AUC) values following intravenous (i.v.) or subcutaneous (s.c.) administration of various doses of rhEPO to human subjects, respectively. […] (See Table 1 below.)
# [2] = system: circulating EPO; experiment: Peak circulating (serum) EPO levels in normal monkeys after a single dose; conditions: 8-12 hours after administration
# [3] = system: circulating EPO; experiment: Circulating EPO levels in mice after single intravenous or oral gavage dose; conditions: 6 hours after administration; for EPO Intravenous: single intravenous dose (dose of the table not stated; 2-60 mg/kg tested); for EPO Oral Gavage: single oral gavage dose (dose of the table not stated; 2-60 mg/kg tested)
# Method: (§2) Mice were administered various doses (2 mg/kg, 6 mg/kg, 20 mg/kg, 60 mg/kg) of compounds of the present invention by oral gavage or by intravenous injection. Circulating levels of EPO were determined […] hours after single-dose administration of compound. Hemoglobin levels were measured in mice on day 8 following administration of compound by oral gavage on day 1, day 3, and day 5.
# [4] = system: hemoglobin; experiment: Hemoglobin levels in mice on day 8 after oral gavage on day 1, 3 and 5; conditions: for Hemoglobin 2 mg/kg cmpd: 2 mg/kg oral gavage on day 1, 3 and 5, measured day 8; for Hemoglobin 6 mg/kg cmpd: 6 mg/kg oral gavage on day 1, 3 and 5, measured day 8; for Hemoglobin 20 mg/kg cmpd: 20 mg/kg oral gavage on day 1, 3 and 5, measured day 8; for Hemoglobin 60 mg/kg cmpd: 60 mg/kg oral gavage on day 1, 3 and 5, measured day 8
# Method: as §2
# [5] = system: circulating EPO; experiment: Circulating EPO levels in mice after oral gavage of compound A
# Method: Mice were administered various doses (0, 20, 30, 60 mg/kg) of compound A by oral gavage. Circulating levels of EPO were determined 6 hours after compound administration. […] Administration of 20 mg/kg of compound A increased circulating levels of EPO approximately two-fold.
# [6] = system: hematocrit; experiment: Hematocrit in rats after intermittent dosing for 4 weeks
# Method: Male (diamonds in FIG. 2) and female (triangles in FIG. 2) rats were administered various doses (20, 60, 150, 200, 300 mg/kg) of compound A two times per week (e.g., intermittent dosing) for 4 weeks. Hematocrit was determined on day 32.
# [7] = system: hemoglobin; experiment: Hemoglobin levels in anemic pre-dialysis human subjects with chronic kidney disease; conditions: for Mean change from Baseline Hb Day 42 (or last value carried forward): oral three-times per week for 4 weeks
# Method: The effects of compound of the present invention on erythropoiesis in anemic pre-dialysis subjects with advanced stage chronic kidney disease were determined. Study subjects had chronic kidney disease and anemia, having GFR<30 ml/min and Hb<10g/dL. Two anemic pre-dialysis subject populations with chronic kidney disease (CKD) were studied: (1) subjects with no previous exposure to rhEPO (i.e., rhEPO-naive) and (2) subjects who had been receiving continuous rhEPO therapy for at least 8 weeks. In rhEPO-treated subjects, rhEPO administration was discontinued 5-14 days prior to initiation of treatment with compound of the present invention Subjects were orally administered compound A three-times per week for 4 weeks. Erythropoiesis was measured by changes in hemoglobin levels and serum EPO concentrations.
# [8] = system: serum EPO; experiment: Serum EPO levels in healthy human subjects after compound administration; set-up: EPO AUC (0-24 hours): unit not given beside the values
# Method: […] At the indicated times (hours) after compound administration, serum EPO levels were determined.
# as §1
# [9] = system: circulating EPO; experiment: Circulating EPO levels in bilateral nephrectomized and sham-operated mice
# Method: Mice underwent bilateral nephrectomy (BN) surgery (or were sham-operated). Two hours after BN surgery, mice were administered a single oral dose (30 mg/kg) of compound A. Circulating EPO levels were measured 6 hours after compound administration. […] The kidneys produce the majority of endogenous EPO.
compound,measurement,setting,value
"rhEPO: recombinant human erythropoietin (rhEPO), an erythropoiesis stimulating protein; current therapy for anemia",Cmax EPO,[1]; rhEPO 10 U/kg i.v.,181 mIU/ml
same,Cmax EPO,[1]; rhEPO 50 U/kg i.v.,"1,430 mIU/ml"
same,Cmax EPO,[1]; rhEPO 150 U/kg i.v.,"4,438 mIU/ml"
same,Cmax EPO,[1]; rhEPO 300 U/kg s.c.,429 mIU/ml
same,Cmax EPO,[1]; rhEPO 450 U/kg s.c.,"1,263 mIU/ml"
same,Cmax EPO,[1]; rhEPO 500 U/kg i.v.,"16,257 mIU/ml"
same,Cmax EPO,[1]; rhEPO 600 U/kg s.c.,"1,263 mIU/ml"
"Cc1nc(C(=O)NCC(=O)O)c(O)c2ccc(Oc3ccccc3)cc12 [Compound B, [(4-Hydroxy-1-methyl-7-phenoxy-isoquinoline-3-carbonyl)-amino]-acetic acid]",Peak EPO,"[2]; single dose 3 mg/kg, pre-dose 4.2",13.1
same,Peak EPO,"[2]; single dose 30 mg/kg, pre-dose 0",1534.0
same,Peak EPO,"[2]; single dose 60 mg/kg, pre-dose 1.2",2739.8
"Cc1nc(C(=O)NCC(=O)O)c(O)c2cccc(Oc3ccccc3)c12 [Compound E, [(4-Hydroxy-1-methyl-8-phenoxy-isoquinoline-3-carbonyl)-amino]-acetic acid]",EPO Intravenous,[3],2976 mIU/ml
same,EPO Oral Gavage,[3],744 mIU/ml
same,Hemoglobin 2 mg/kg cmpd,[4],12.23 g/dL
same,Hemoglobin 6 mg/kg cmpd,[4],13.29 g/dL
same,Hemoglobin 20 mg/kg cmpd,[4],13.41 g/dL
same,Hemoglobin 60 mg/kg cmpd,[4],15.9 g/dL
"Cc1nc(C(=O)NCC(=O)O)c(O)c2cccc(Oc3ccc(F)cc3)c12 [Compound G, {[8-(4-Fluoro-phenoxy)-4-hydroxy-1-methyl-isoquinoline-3-carbonyl]-amino}-acetic acid]",EPO Intravenous,[3],10969 mIU/ml
same,EPO Oral Gavage,[3],2546 mIU/ml
same,Hemoglobin 2 mg/kg cmpd,[4],14.39 g/dL
same,Hemoglobin 6 mg/kg cmpd,[4],13.13 g/dL
same,Hemoglobin 20 mg/kg cmpd,[4],14.85 g/dL
same,Hemoglobin 60 mg/kg cmpd,[4],17.7 g/dL
"COc1ccc(Oc2ccc3c(O)c(C(=O)NCC(=O)O)ncc3c2)cc1 [Compound C, {[4-Hydroxy-7-(4-methoxy-phenoxy)-isoquinoline-3-carbonyl]-amino}-acetic acid]",EPO Intravenous,[3],1663 mIU/ml
same,Hemoglobin 6 mg/kg cmpd,[4],13.68 g/dL
same,Hemoglobin 20 mg/kg cmpd,[4],14.29 g/dL
same,Hemoglobin 60 mg/kg cmpd,[4],14.94 g/dL
"O=C(O)CNC(=O)c1ncc2c(Oc3ccccc3)cccc2c1O [Compound D, [(4-Hydroxy-8-phenoxy-isoquinoline-3-carbonyl)-amino]-acetic acid]",EPO Intravenous,[3],5473 mIU/ml
same,EPO Oral Gavage,[3],1201 mIU/ml
same,Hemoglobin 2 mg/kg cmpd,[4],14.1 g/dL
same,Hemoglobin 6 mg/kg cmpd,[4],13.98 g/dL
same,Hemoglobin 20 mg/kg cmpd,[4],14.55q g/dL
"Cc1nc(C(=O)NCC(=O)O)c(O)c2ccc(Cl)cc12 [Compound F, [(7-Chloro-4-hydroxy-1-methyl-isoquinoline-3-carbonyl)-amino]-acetic acid]",EPO Intravenous,[3],3967 mIU/ml
same,Hemoglobin 6 mg/kg cmpd,[4],13.66 g/dL
same,Hemoglobin 20 mg/kg cmpd,[4],14.15 g/dL
same,Hemoglobin 60 mg/kg cmpd,[4],17.74 g/dL
"O=C(O)CNC(=O)c1nc(Cl)c2ccccc2c1O [Compound A, [(1-Chloro-4-hydroxy-isoquinoline-3-carbonyl)-amino]-acetic acid]",circulating levels of EPO,"[5]; oral gavage 0, 20, 30, 60 mg/kg, 6 hours after administration (FIG. 1)",increased EPO levels in mice in a dose-dependent manner
same,increase of circulating levels of EPO,"[5]; oral gavage 20 mg/kg, 6 hours after administration",approximately two-fold
same,hematocrit,"[6]; male and female rats, 20, 60, 150, 200, 300 mg/kg two times per week for 4 weeks, day 32 (FIG. 2)",increased hematocrit in rats in a dose-dependent manner
same,"erythropoiesis, as determined by hematocrit","[6]; rats, 20 mg/kg two times per week for 4 weeks, day 32",clinically-significant increase in erythropoiesis
same,decrease from mean Hb baseline levels,"[7]; CKD subjects after cessation of rhEPO therapy, placebo 1.5 g/dL decrease",0.9 g/dL
same,Mean change from Baseline Hb Day 42 (or last value carried forward),"[7]; CKD subjects previously on rhEPO (discontinued 5-14 days before), mean baseline Hb 11.7 g/dL, placebo −1.5",-0.9 g/dL
same,hemoglobin levels versus placebo,"[7]; rhEPO-naive CKD subjects, oral three-times per week for 4 weeks (FIG. 5)",hemoglobin levels were higher
same,Mean change from Baseline Hb Day 42 (or last value carried forward),"[7]; rhEPO-naive CKD subjects, mean baseline Hb 9.6 g/dL, placebo −0.35, p = 0.036",1.9 g/dL
same,Peak EPO,"[2]; single dose 13 mg/kg, pre-dose 2.1",3.6
same,Peak EPO,"[2]; single dose 30 mg/kg, pre-dose 0.6",2.9
same,Peak EPO,"[2]; single dose 40 mg/kg, pre-dose 0.8",32.3
same,Peak EPO,"[2]; single dose 50 mg/kg, pre-dose 0",21.4
same,Peak EPO,"[2]; single dose 60 mg/kg, pre-dose 0",1194.2
same,EPO Intravenous,[3],1309 mIU/ml
same,Hemoglobin 6 mg/kg cmpd,[4],12.86 g/dL
same,Hemoglobin 20 mg/kg cmpd,[4],12.92 g/dL
same,Hemoglobin 60 mg/kg cmpd,[4],13.47 g/dL
same,serum EPO levels,"[8]; healthy human subjects, 3, 6, 10, 15, 20 mg/kg oral (FIG. 3)",increased serum EPO levels in a dose-dependent manner
same,EPO AUC (0-24 hours),"[8]; human subjects, PHI dose 6 mg/kg",203.5
same,EPO AUC (0-24 hours),"[8]; human subjects, PHI dose 10 mg/kg",331
same,EPO AUC (0-24 hours),"[8]; human subjects, PHI dose 20 mg/kg",365.5
same,EPO AUC (0-24 hours),"[8]; human subjects, PHI dose 30 mg/kg",508
same,circulating EPO levels compared with rhEPO administration,"[8]; human subjects, therapeutically effective doses of compound A versus rhEPO",substantially lower circulating EPO levels
same,circulating EPO levels,"[9]; bilateral nephrectomized (BN) mice, single oral dose 30 mg/kg two hours after surgery, 6 hours after administration (FIG. 4B)",significant increase in EPO levels
same,circulating EPO levels,"[9]; sham-operated mice, single oral dose 30 mg/kg, 6 hours after administration (FIG. 4A)",an increase in circulating levels of EPO
"N#Cc1nc(C(=O)NCC(=O)O)c(O)c2sccc12 [Compound H, [(4-cyano-7-hydroxy-thieno[3,2-c]pyridine-6-carbonyl)-amino]-acetic acid]",EPO Intravenous,[3],1242 mIU/ml
same,EPO Oral Gavage,[3],608 mIU/ml
same,Hemoglobin 2 mg/kg cmpd,[4],12.67 g/dL
same,Hemoglobin 6 mg/kg cmpd,[4],13.65 g/dL
same,Hemoglobin 20 mg/kg cmpd,[4],13.53 g/dL
same,Hemoglobin 60 mg/kg cmpd,[4],14.2 g/dL
